In patent US12312378B2, “Glucosamine derivatives for the prevention or treatment of joint disorders” (RISEN (SUZHOU) PHARMA TECH CO., LTD., priority 2017, dated 2025):
Entries after “also recorded” stand apart in the source; their conditions may differ. Marks after values point to notes of the source that are not given here. One block for each molecule: values may come before it.

Legend:
[1] = test system: MMT-induced model of osteoarthritis; assay: Medial meniscus transection (MMT) model in rats; format: in vivo, rat; conditions: for Weight bearing (right paw, %), mean: G2, gavage 4 times every day
From the text: In the rat MMT model, the unilateral knee (right knee) was cleaned and prepped for surgery. An incision was made over the medial aspect of the femoro-tibial joint. The medial collateral ligament was exposed via blunt dissection and transected to reflect the meniscus toward the femur. A full thickness cut was made through the meniscus at its narrowest point. The joint space was returned to normal, and the skin was closed and the animal allowed to recover. For the present study, at second day post MMT induction animals, G1 and G2 animals were treatment with vehicle and test compound 16 respectively. Animals were dosed 4 times every day, and were dosed by gavage for 4 weeks.

MIA-induced OA rat model = assay: Monosodium iodoacetate-induced osteoarthritis (MIA) model in rat knee; format: in vivo
Protocol: Osteoarthritis was induced by intra-articular (i.a.) injection of MIA solution in the rat knee joint as follows: Briefly, rats were anesthetized with isoflurane and given a single i.a. administration of 2 mg of MIA dissolved in saline through the intrapatellar ligament of the right knee. MIA was administered in a volume of 50 μL. Basal readings were established using a group of control rats injected with 10% ethanol in water. Rats were randomized by initial body weight to groups of 6 or 7. After MIA injection, the MIA groups began treatment with either vehicle, or a test compound at a preset dose regime for a period of 28 days. Clinical observations were recorded, including body weight, joint swelling, and weight bearing, on pre-induction day (day 0), day 3, 5, 7, 14, 21 and/or 28. At the end of the study, the animals were euthanized by CO2 and sacrificed. Joint samples including the tibia and femur were sectioned in the coronal plane and stained using both H&E and Safranin-O. Knee joints were examined and scored for cartilage degeneration, the presence of osteophytes, the amount and extent of calcified cartilage and subchondral bone damage, and the amount of synovial membrane inflammation using the Osteoarthritis Research Society International (OARSI) scoring system put forth in 2010 (Kraus, V. B. et al., Osteoarthritis Cartilage, 2010, Suppl 3:S35-52).
Studies of compound 16 in the MIA model were conducted as described above.

[2] = Pharmacokinetic study in SD rats: plasma GlcNBu after oral gavage of test compound; format: in vivo, Sprague-Dawley (SD) rats; set-up: key: (—): not detected; conditions: Table 5: plasma GlcNBu after oral administration of the indicated compound, 0.93 mmol/kg
Protocol: A test compound is dissolved in water at a concentration determined by the desired dose and dosing volume for the specific animal to which the compound is to be administered. A calculated volume of dosing solution is administered to the animal (PO, SQ, IP, or IV). A blood sample is collected following administration of the test compound at specific time points (such as 0 minutes (min), 5 min, 10 min, 15 min, 30 min, 1 hour (h), 1.5 h, 2 h, 3 h, 4, 6 h, etc.). The blood sample is converted to a plasma sample using standard techniques. The plasma samples are analyzed to determine the concentration of the test compound and, in some cases, GlcNBu.
According to the above general procedure, SD rats were grouped randomly into groups of six (n=6). The test compound, GlcNBu or a compound provided herein, was administered to the animals by oral gavage at a dose of 0.93 mmol/kg. For illustration purposes, GlcNBu was given at an oral dose of 232 mg/kg (0.93 mmol/kg), and compound 16 was administered at an equal molar dose (0.93 mmol/kg, i.e., 362 mg/kg). At pre-set time points, blood was taken through orbital venous plexus extraction, and the samples were analyzed using LC/MS-MS to determine the GlcNBu concentration in the plasma.
In the figure, Curves labeled with -●- and -▴- represent plasma GlcNBu concentration following oral administration of GlcNBu (232 mg/kg, or 0.93 mmol/kg) and compound 16 ([…], or 0.93 mmol/kg), respectively. […] FIG. 2A and FIG. 2B show examples of other compounds of the invention, presented in plasma GlcNBu concentration versus time curves; a summary of pharmacokinetic parameters for these compounds is given in Table 4 and Table 5.

[3] = rats; data from i.v., i.p., and p.o. studies; cited from earlier work
[4] = test system: destructive arthritis rat model; conditions: cited from earlier work
OVX rat = conditions: GlcNBu feeding in the OVX rat; cited from earlier work
[5] = humans, cited from earlier work
[6] = rats; cited from earlier work
[7] = G2, histopathology after 4 weeks of dosing

Compound: CCCC(=O)N[C@H]1C(O)O[C@H](COC(=O)CCC)[C@@H](OC(=O)CCC)[C@@H]1O (stereo partly drawn) [Compound 16, 2-N-4,6-O-tributyryl-D-glucosamine]
degeneration changes of chondrocyte clustering, G2 compared with G1 [1]: significantly lower; also recorded: significantly less
values in all histology parameters, G2 versus G1 [1]: lower
weight bearing on the right paw, G2 compared with G1 ([1]; Day 3 and Days 14-28): significantly increased; also recorded: significantly more
Weight bearing (right paw, %), mean ([1]; Day 3): 36.68* %
Weight bearing (right paw, %), mean ([1]; Day 5): 39.76%
Weight bearing (right paw, %), mean ([1]; Day 7): 40.68%
Weight bearing (right paw, %), mean ([1]; Day 14): 42.71* %
Weight bearing (right paw, %), mean ([1]; Day 21): 43.73** %
Weight bearing (right paw, %), mean ([1]; Day 28): 44.06** %
Weight bearing (right paw, %), mean ([1]; Pre-injection baseline): 49.55%
Chondrocyte clustering (0-4), mean [1, 7]: 1.17*
Degenerative changes in cartilage (0-4), mean [1, 7]: 1.17
Inflammatory response in subchondral bone region (0-4), mean [1, 7]: 0.00
Nature of predominant tissue (0-4), mean [1, 7]: 1.00
Neo-vascularization (0-4), mean [1, 7]: 0.00
Osteophytes (0-4), mean [1, 7]: 1.17
Structural integrity (0-4), mean [1, 7]: 1.17
Surface regularity (0-4), mean [1, 7]: 1.67
Total scoring, mean [1, 7]: 7.33
Weight bearing, mean (MIA-induced OA rat model; MIA rats, Group 2, 234 mg/kg, Day 3): 32.07%
Weight bearing, mean (MIA-induced OA rat model; MIA rats, Group 2, 234 mg/kg, Day 5): 35.76** %
Weight bearing, mean (MIA-induced OA rat model; MIA rats, Group 2, 234 mg/kg, Day 7): 37.72%
Weight bearing, mean (MIA-induced OA rat model; MIA rats, Group 2, 234 mg/kg, Day 14): 40.86%
Weight bearing, mean (MIA-induced OA rat model; MIA rats, Group 2, 234 mg/kg, Day 21): 44.12%
Weight bearing, mean (MIA-induced OA rat model; MIA rats, Group 2, 234 mg/kg, Day 28): 45.90%
Weight bearing, mean (MIA-induced OA rat model; MIA rats, Group 2, 234 mg/kg, Pre-Injection (Day 0) baseline): 50.49%
Weight bearing, mean (MIA-induced OA rat model; MIA rats, Group 3, 468 mg/kg, Day 3): 34.56%
Weight bearing, mean (MIA-induced OA rat model; MIA rats, Group 3, 468 mg/kg, Day 5): 37.40** %
Weight bearing, mean (MIA-induced OA rat model; MIA rats, Group 3, 468 mg/kg, Day 7): 39.23%
Weight bearing, mean (MIA-induced OA rat model; MIA rats, Group 3, 468 mg/kg, Day 14): 41.68* %
Weight bearing, mean (MIA-induced OA rat model; MIA rats, Group 3, 468 mg/kg, Day 21): 44.25%
Weight bearing, mean (MIA-induced OA rat model; MIA rats, Group 3, 468 mg/kg, Day 28): 44.98%
Weight bearing, mean (MIA-induced OA rat model; MIA rats, Group 3, 468 mg/kg, Pre-Injection (Day 0) baseline): 50.25%
weight bearing on the back-right leg versus vehicle (MIA-induced OA rat model; MIA rats, day 5, all compound-treated groups (234 and 468 mg/kg)): significant increases
weight bearing versus vehicle (MIA-induced OA rat model; MIA rats, high dose (G3, 468 mg/kg), day 14): significant increases
osteophytes versus vehicle group (MIA-induced OA rat model; MIA rats, high dose group (468 mg/kg), histology): significantly decreased
all other mean values for each histological parameter (MIA-induced OA rat model; MIA rats, high dose treated group (468 mg/kg)): clear trend of lowering
articular cartilage degeneration (MIA-induced OA rat model; MIA-induced OA rat model): slowed

AUC0-t [2]: 662 ng·h/mL
AUC0-∞ [2]: 889 ng·h/mL
CLz/F [2]: 367 mL/min/kg
Cmax [2]: 426 ng/mL
Tmax [2]: 0 h
t1/2z [2]: 1 h
Compound: CCCC(=O)N[C@@H]1C(OC(=O)CCC)O[C@H](COC(=O)CCC)[C@@H](OC(=O)CCC)[C@@H]1O (stereo partly drawn) [Compound 74, 2-N-1,4,6-tri-O-tetrabutyryl-D-glucosamine]

AUC0-t [2]: (—)
AUC0-∞ [2]: (—)
CLz/F [2]: (—)
Cmax [2]: (—)
Tmax [2]: (—)
Vz/F [2]: (—)
t1/2z [2]: (—)
Compound: CCCC(=O)N[C@H]1C(OCc2ccccc2)O[C@H](CO)[C@@H](O)[C@@H]1O (stereo partly drawn) [Compound 75, 1-O-benzyl-2-N-butyryl-D-glucosamine]

AUC0-t [2]: (—)
AUC0-∞ [2]: (—)
CLz/F [2]: (—)
Cmax [2]: (—)
Tmax [2]: (—)
Vz/F [2]: (—)
t1/2z [2]: (—)
Compound: CCCC(=O)N[C@H]1C(OCc2ccccc2)O[C@H](CO)[C@@H](O)[C@@H]1OCc1ccccc1 (stereo partly drawn) [Compound 76, 2-N-butyryl-1,3-di-O-benzyl-D-glucosamine]

AUC0-t [2]: (—)
AUC0-∞ [2]: (—)
CLz/F [2]: (—)
Cmax [2]: (—)
Tmax [2]: (—)
Vz/F [2]: (—)
t1/2z [2]: (—)
Compound: CCCC(=O)N[C@H]1C(O)O[C@H](COC(=O)CCC(=O)O)[C@@H](OC(=O)CCC(=O)O)[C@@H]1O (stereo partly drawn) [Compound 79, 2-N-butyryl-4,6-di-O-(4-hydroxy-4-oxo-butyryl)-D-glucosamine]

AUC0-t [2]: 1757 ng·h/mL
AUC0-∞ [2]: 1942 ng·h/mL
CLz/F [2]: 167 mL/min/kg
Cmax [2]: 1110 ng/mL
Tmax [2]: 2 h
t1/2z [2]: 1 h
Compound: CCCC(=O)N[C@H]1C(O)O[C@H](CO)[C@@H](O[C@@H]2O[C@H](CO)[C@@H](O)[C@H](O)[C@H]2O)[C@@H]1O (stereo partly drawn) [Compound 89, 2-N-butyryl-4-O-(D-glucopyranosyl)-D-glucosamine]

AUC0-t [2]: (—)
AUC0-∞ [2]: (—)
CLz/F [2]: (—)
Cmax [2]: (—)
Tmax [2]: (—)
Vz/F [2]: (—)
t1/2z [2]: (—)
Compound: CCCC(=O)N[C@H]1C(O)O[C@H](COC(=O)NCCCC(=O)O)[C@@H](O)[C@@H]1O (stereo partly drawn) [Compound 94, 2-N-butyryl-6-O-((3-carboxy-1-propyl)aminocarbonyl)-D-glucosamine]

Compound: CCCC(=O)N[C@H]1C(O)O[C@H](CO)[C@@H](O)[C@@H]1O (stereo partly drawn) [GlcNBu, N-butyryl glucosamine]
half-life [3]: about 20 min
subchondral bone structure [4]: preserved strikingly
bone mineral and some biomechanical properties (OVX rat): preserves

Compound: N[C@H]1C(O)O[C@H](CO)[C@@H](O)[C@@H]1O (stereo partly drawn) [Glucosamine, glucosamine]
serum levels ([5]; very large doses, after oral or IV administration): cannot be detected
oral bioavailability (F) [6]: 0.19-0.21

Compound: CC(=O)N[C@H]1C(O)O[C@H](CO)[C@@H](O)[C@@H]1O (stereo partly drawn) [N-acetylglucosamine]
half-life compared with glucosamine ([5]; polyvalent or monovalent form): longer
